Consider 18 molecules from patent publication US5348953A, “Substituted azetidinones as anti-inflammatory and antidegenerative agents” (Merck & Co., Inc., priority 1992, dated 1994).

Test system in one series: not listed separately
Nature of the series: Extended storage of the L-malic acid salt at rt.
Conditions: not given
It is filed as physicochemical. From the text: NMR (CDCl3 δ from TMS): 0.9-1.0 (m, 6H), 1.0-1.1 (m, 6H), 1.2-1.4 (m, 2H), 1.6-1.95(2 m's, 6H), 2.30 (s, 3H), 2.6-2.9 (2 m's, 4H), 2.92 and 2.94 (2 s, 3H), 3.2-3.4 (m, 2H), 3.52 (br t, 2H, J=8 Hz), 4.5-4.8 (m, 3H), 5.11 (br s, 1H), 7.04 (2 d's, 1H, J=8Hz), 7.13 (br S, 4H).
The material prepared as described above in Example 20, Step A was hydrogenated as described in Example 19, Step B to afford the L-malic acid salt of 2-(S)-[2-[[2-aminoethyl]-ethylamino]-2-oxoethoxy]-3,3-diethyl-N-[1-(R)-(4- methylphenyl)butyl]-4-oxo-1-azetidinecarboxamide as an oil. […] This process could be evaluated by HPLC analysis.
In the case of `CCC[C@@H](NC(=O)N1C(=O)C(CC)(CC)[C@@H]1OCC(=O)N(CC)CCNC)c1ccc(C)cc1` [Example 19, 2-(S)-[2-[[2-Methylaminoethyl]-ethylamino]-2-oxoethoxy]-3,3-diethyl-N-[1-(R)-(4-methylphenyl)butyl]-4-oxo-1-azetidinecarboxamide], the stability upon storage entry is “rearranges to an isomeric equilibrium mixture”.

Another series addresses T1, Human Polymorphonuclear Leukocyte Elastase (Homo sapiens, UniProt P08246).
T1 construct: Crude extract of human polymorphonuclear leukocytes (PMN) containing elastase activity; from tissue; host or cells: human polymorphonuclear leukocytes (crude extract)
T1 sequence (P08246 30-267): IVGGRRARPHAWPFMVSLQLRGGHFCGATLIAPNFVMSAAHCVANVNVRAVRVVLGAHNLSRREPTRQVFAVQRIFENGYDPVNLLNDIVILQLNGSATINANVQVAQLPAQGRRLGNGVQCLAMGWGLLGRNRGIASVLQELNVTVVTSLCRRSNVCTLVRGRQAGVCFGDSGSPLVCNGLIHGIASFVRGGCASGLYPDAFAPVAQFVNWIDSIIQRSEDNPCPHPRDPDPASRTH
Nature of the series: Inhibition of human polymorphonuclear leukocyte elastase via hydrolysis of Boc-AAPAN or Boc-AAPVN. It is filed as biochemical. The conditions noted are these: pH 7.5; second order rate constant for inactivation; Formula A, M n-propyl, R2 4-methyl (TABLE 1); read-out: kobs /[I]. How it is done:
Enzyme Assays for the Inhibition of Human Polymorphonuclear Leukocyte
Elastase Via Hydrolysis of
N-t-Boc-alanyl-alanyl-prolylalanine-p-nitroanilide (Boc-AAPAN) or
N-t-Boc-alanyl-prolylvaline-p-nitroanilide (Boc-AAPVN) Reagent:
0.05M TES (N-tris[hydroxymethyl]methyl-2-amino-ethanesulfonic acid) Buffer, pH 7.5.
0.2 mM Boc-AAPAN or Boc-AAPVN.
To prepare substrate, the solid was first dissolved in 10.0 ml DMSO. Buffer at pH 7.5 was then added to a final volume of 100 ml.
Crude extract of human polymorphonuclear leukocytes (PMN) containing elastase activity.
Inhibitors (azetidinones) to be tested dissolved in DMSO just before use.
To 1.0 ml of 0.2 mM Boc-AAPAN in a cuvette, 0.01-0.1 ml of DMSO with or without inhibitor was added. After mixing, a measurement was taken at 410 mμ to detect any spontaneous hydrolysis due to presence of test compound. 0.05 Milliliters of PMN extract was then added and the ΔOD/min at 410 mμ was measured and recorded. Beckman model 35 spectrophotometer was used.
Results in Table I were reported as ID50, effective dosage in micrograms per milliliter (μg/ml) for 50% inhibition of the enzyme activity 2 minutes after zero time.
Results were also expressed as Ki, the micromolar concentration of the inhibitor (μM) giving 50% of the control enzyme activity; or as ^k obs/I which is the second order rate constant in per mole per second for inactivation of the enzyme.
The elastase activity in the crude PMN extract may vary from one preparation to another. A control of each new batch is run, and the volume added in the assay procedure is adjusted according to activity.
In the case of `CCC[C@@H](NC(=O)N1C(=O)C(CC)(CC)[C@@H]1OCC(=O)N(CC)CCN(C)C)c1ccc(C)cc1` [Y=N(Et)CH2 CH2; R5=H; R7=Me; R8=Me, 2-(S)-[2-[[2-(Dimethylamino)ethyl]ethylamino]-2-oxoethoxy]-3,3-diethyl-N-[1-(R)-(4-methylphenyl)butyl]-4-oxo-1-azetidinecarboxamide], the kinact/KI amounted to 120000 M⁻¹ s⁻¹.
Same read-out and setting: the figure for `CCC[C@@H](NC(=O)N1C(=O)C(CC)(CC)[C@@H]1OCC(=O)N(C)CCN(C)C)c1ccc(C)cc1` [Y=N(Me)CH2 CH2; R5=H; R7=Me; R8=Me, 2-(S)-[2-[[2-(Dimethylamino)ethyl]methylamino]-2-oxoethoxy]-3,3-diethyl-N-[1-(R)-(4-methylphenyl)butyl]-4-oxo-1-azetidinecarboxamide] is 114000 M⁻¹ s⁻¹; for `CCC[C@@H](NC(=O)N1C(=O)C(CC)(CC)[C@@H]1OCC(=O)N(C)CCN(C(C)C)C(C)C)c1ccc(C)cc1` [Y=N(Me)CH2 CH2; R5=H; R7=iPr; R8=iPr, 2-(S)-[2-[[2-(Diisopropylamino)ethyl]methylamino]-2-oxoethoxy]-3,3-diethyl-N-[1-(R)-(4-methylphenyl)butyl]-4-oxo-1-azetidinecarboxamide] it is 115000 M⁻¹ s⁻¹.
Take `CCC[C@@H](NC(=O)N1C(=O)C(CC)(CC)[C@@H]1O[C@@H](C)C(=O)N(C)CCN(CC)CC)c1ccc(C)cc1` [Y=N(Me)CH2 CH2; R5=Me; R7=Et; R8=Et, 2-(S)-[2-[[2-(Diethylamino)ethyl]methylamino]-2-oxo-(1-(S)-methyl)ethoxy]-3,3-diethyl-N-[1-(R)-(4-methylphenyl)butyl]-4-oxo-1-azetidinecarboxamide]: the kinact/KI stood at 1.8e+06 M⁻¹ s⁻¹.
On the same count and under the same terms, under `CCC[C@@H](NC(=O)N1C(=O)C(CC)(CC)[C@@H]1O[C@@H](C)C(=O)N(C)CCN(C)C)c1ccc(C)cc1` [Y=N(Me)CH2 CH2; R5=Me; R7=Me; R8=Me, 2-(S)-[2-[[2-(Dimethylamino)ethyl]methylamino]-2-oxo-(1-(S)-methyl)ethoxy]-3,3-diethyl-N-[1-(R)-(4-methylphenyl)butyl]-4-oxo-l-azetidinecarboxamide] stands 1.65e+06 M⁻¹ s⁻¹; under `CCC[C@@H](NC(=O)N1C(=O)C(CC)(CC)[C@@H]1OCC(=O)N(CCC)CCN(CC)CC)c1ccc(C)cc1` [Y=N(Pr)CH2 CH2; R5=H; R7=Et; R8=Et, 2-(S)-[2-[[2-(Diethylamino)ethyl]propylamino]-2-oxoethoxy]-3,3-diethyl-N-[1-(R)-(4-methylphenyl)butyl]-4-oxo-1-azetidinecarboxamide], 170000 M⁻¹ s⁻¹.
Regarding `CCC[C@@H](NC(=O)N1C(=O)C(CC)(CC)[C@@H]1OCC(=O)N(CCN(CC)CC)C(C)C)c1ccc(C)cc1` [Y=N(iPr)CH2 CH2; R5=H; R7=Et; R8=Et], the kinact/KI came out at 175000 M⁻¹ s⁻¹.
With `CCC[C@@H](NC(=O)N1C(=O)C(CC)(CC)[C@@H]1OCC(=O)N(CCN(C)C)C(C)C)c1ccc(C)cc1` [Y=N(iPr)CH2 CH2; R5=H; R7=Me; R8=Me], the kinact/KI worked out at 175000 M⁻¹ s⁻¹.
Take `CCC[C@@H](NC(=O)N1C(=O)C(CC)(CC)[C@@H]1OCC(=O)NCCN1CCOCC1)c1ccc(C)cc1` [Y=NHCH2 CH2; R5=H; R7 R8=CH2 CH2OCH2 CH2, 2-(S)-[2-[[2-(morpholin-1-yl)ethyl]amino]-2-oxoethoxy]-3,3-diethyl-N-[1-(R)-(4-methylphenyl)butyl]-4-oxo-1-azetidinecarboxamide]: the kinact/KI was determined as 115000 M⁻¹ s⁻¹.
Take `CCC[C@@H](NC(=O)N1C(=O)C(CC)(CC)[C@@H]1OCC(=O)NCCN(CC)CC)c1ccc(C)cc1` [Y=NHCH2 CH2; R5=H; R7=Et; R8=Et, 2-(S)-[2-[[2-(Diethylamino)ethyl]amino]-2-oxoethoxy]-3,3-diethyl-N-[1-(R)-(4-methylphenyl)butyl]-4-oxo-1-azetidinecarboxamide]: the kinact/KI was found to be 220000 M⁻¹ s⁻¹.
With `CCC[C@@H](NC(=O)N1C(=O)C(CC)(CC)[C@@H]1OCC(=O)NCCN(C(C)C)C(C)C)c1ccc(C)cc1` [Y=NHCH2 CH2; R5=H; R7=iPr; R8=iPr, 2-(S)-[2-[[2-(Diisopropylamino)ethyl]amino]-2-oxoethoxy]-3,3-diethyl-N-[1-(R)-(4-methylphenyl)butyl]-4-oxo-1-azetidinecarboxamide], the kinact/KI was found to be 105000 M⁻¹ s⁻¹.
With `CCC[C@@H](NC(=O)N1C(=O)C(CC)(CC)[C@@H]1O[C@@H](C)C(=O)NCCN(CC)CC)c1ccc(C)cc1` [Y=NHCH2 CH2; R5=Me; R7=Et; R8=Et, 2-(S)-[2-[[2-(Diethylamino)ethyl]amino]-2-oxo-(1-(S)-methyl)ethoxy]-3,3-diethyl-N-[1-(R)-(4-methyl-phenyl)butyl]-4-oxo-l-azetidinecarboxamide], the kinact/KI was found to be 1.35e+06 M⁻¹ s⁻¹.
As to `CCC[C@@H](NC(=O)N1C(=O)C(CC)(CC)[C@@H]1O[C@@H](C)C(=O)NCCN(C)C)c1ccc(C)cc1` [Y=NHCH2 CH2; R5=Me; R7=Me; R8=Me, 2-(S)-[2-[[2-(Dimethylamino)ethyl]amino]-2-oxo-(1-(S)-methyl)ethoxy]-3,3-diethyl-N-[1-(R)-(4-methylphenyl)butyl]-4-oxo-1-azetidinecarboxamide], the kinact/KI stood at 1.04e+06 M⁻¹ s⁻¹.
Same read-out and setting: the figure for `CCC[C@@H](NC(=O)N1C(=O)C(CC)(CC)[C@@H]1OCC(=O)N(CC)CC)c1ccc(C)cc1` [Y=co-valent bond; R5=H; R7=Et; R8=Et] is 315000 M⁻¹ s⁻¹; for `CCC[C@@H](NC(=O)N1C(=O)C(CC)(CC)[C@@H]1OCC(=O)N(C)C)c1ccc(C)cc1` [Y=co-valent bond; R5=H; R7=Me; R8=Me] it is 125000 M⁻¹ s⁻¹.

Still in this series, the particulars now being: pH 7.5; second order rate constant; Formula A, M n-propyl, R4 piperazine amide with substituent Z; read-out: kobs /[I].
For `CCC[C@@H](NC(=O)N1C(=O)C(CC)(CC)[C@@H]1OCC(=O)N1CCN(C)CC1)c1ccc(C)cc1` [R2=4-Me; R5=H; Z=--Me, 2-(S)-[2-[2-(4-Methyl)piperazin-1-yl]-2-oxoethoxy]-3,-3-diethyl-N-[1-(R)-(4-methylphenyl)-butyl]4-oxo-1-azetidinecarboxamide], the kinact/KI is 150000 M⁻¹ s⁻¹.

In a further series the target is T2, HUMAN PROTEINASE 3 (Homo sapiens, UniProt P24158).
T2 sequence (P24158 28-256): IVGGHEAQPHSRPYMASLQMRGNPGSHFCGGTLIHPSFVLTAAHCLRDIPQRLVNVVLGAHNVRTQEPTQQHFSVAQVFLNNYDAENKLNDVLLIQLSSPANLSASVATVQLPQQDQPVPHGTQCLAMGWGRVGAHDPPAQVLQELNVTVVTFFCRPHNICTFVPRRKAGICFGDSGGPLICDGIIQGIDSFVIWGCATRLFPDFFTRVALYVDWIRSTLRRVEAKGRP
Nature of the series: Inhibition of PR3 catalyzed hydrolysis of MeO-Succ-AAPV-pNA. It is filed as biochemical. The conditions noted are these: 45 mM TES pH 7.5, 450 mM NaCl, 10% DMSO; 0.2 mM substrate (TABLE 2); read-out: SORC (second order rate constant, kobs/I). How it is done: The PR3 catalyzed hydrolysis of MeO-Succ-AAPV-pNA was measured in a spectrophotometer monitoring absorbance at 410 n,m. The enzymatic activity was determined in 45 mM TES at pH 7.5, 450 mM NaCl and 10% DMSO. The data were fit by non-linear regression to equation 1 to obtain the initial rates. The nonlinear progress curves observed with time dependent inhibitors were fit to equation 2 to obtain the first order rate constant Kobs. Results were expressed as kobs/I which is the second order rate constant (SORC) in per mole per second for inactivation of the enzyme.
EQN 2 Y=vs *X+[(vo -vs) (1-e^(-K.sbsp.o^*X))/Ko
Kinetic constants for the inhibition of PR3 catalyzed hydrolysis of 0.2 mM MoO-succ-AAPV-pNA were determined by varying the concentration of inhibitor present in the reaction vessel.
On to `CCC[C@@H](NC(=O)N1C(=O)C(CC)(CC)[C@@H]1OCC(=O)N(CC)CCN(C)CCOC)c1ccc(C)cc1` [2-(S)-[2-[[2-((2-Methoxyethyl)-methylamino)ethyl]ethylamino]-2-oxoethoxy]-3,3-diethyl-N-[1-(R)-(4methylphenyl)butyl]-4-oxo-1-azetidinecarboxamide], for which the kinact/KI is 13700 M⁻¹ s⁻¹.
Consider `CCC[C@@H](NC(=O)N1C(=O)C(CC)(CC)[C@@H]1OCC(=O)N1CCN(C)CC1)c1ccc(C)cc1` [R2=4-Me; R5=H; Z=--Me, 2-(S)-[2-[2-(4-Methyl)piperazin-1-yl]-2-oxoethoxy]-3,-3-diethyl-N-[1-(R)-(4-methylphenyl)-butyl]4-oxo-1-azetidinecarboxamide], for which the kinact/KI was determined as 14800 M⁻¹ s⁻¹.
Regarding `CCC[C@@H](NC(=O)N1C(=O)C(CC)(CC)[C@@H]1OCC(=O)N(CC)CCN(C)C)c1ccc(C)cc1` [Y=N(Et)CH2 CH2; R5=H; R7=Me; R8=Me, 2-(S)-[2-[[2-(Dimethylamino)ethyl]ethylamino]-2-oxoethoxy]-3,3-diethyl-N-[1-(R)-(4-methylphenyl)butyl]-4-oxo-1-azetidinecarboxamide], the kinact/KI worked out at 7900 M⁻¹ s⁻¹.
